Experimental data published in patent publication EP0002426B1, “Antiperspirant” (priority 1977, dated 1979).
“And” between values parts separate entries of the source, which are not always exact repeats. Identical values can stand only once. Like-named read-outs stand apart in the source and are kept apart here.

What was measured:
dermal analgesia = test: Pin-prick test of dermal analgesia after epidermal application of local anesthetic emulsions on the forearm; assay type: in vivo, volunteers; conditions: for Pin-prick test, M1–10: mean of patients 1-10 (out of 10 pin-pricks); for Pin-prick test, M1–12: mean of patients 1-12; for dermal analgesia, effectiveness versus placebo emulsion: under occlusion as well as under a non-occlusive bandage
Protocol: (§1) The anti perspiration effect of the present invention was determined in an experimental investigation of dermal analgesia and influence upon adrenaline-induced local sweating by epidermal application of different local anesthetic formulations.
(§2) 12 healthy medical students took part in the study.
(§3) Pre-formed pads, consisting of cellulose fibres, 2 times 2 centimetres, were soaked by a standardized procedure in either an emulsion containing 5% lidocaine base + 5% prilocaine base, an emulsifying agent and water, 10% lidocaine base in the same vehicle, 10% prilocaine base in the same vehicle, or a placebo emulsion containing the emulsifying agent and water only. On one forearm of the volunteer the four different emulsions were applied under occlusive dressings consisting of an impervious tape, while on the other arm the four emulsions were applied under a non-occlusive dressing, using surgical tape (3M). A certain distance between the application areas was chosen in order to avoid any risk of interference between them.
(§4) On the arms of the volunteers 11 and 12 the emulsions were applied directly to the skin, with no cellulose pads, but with occlusive and non-occlusive dressings applied as in the other volunteers.
(§5) The application time for the pads was 60 minutes.
(§6) Immediately after removal of the pads, the square areas under the two types of dressing were marked at the edges. A line was also marked within each applied area dividing them into two identical triangles. One of these surfaces were then used by pin-prick experiments, the other for studying the sweat response.
The pin-pricking procedure was carried out with disposable dental needles. In each of the test areas 10 pin-pricks were made. 10/10 represents full analgesia, 0/10 no analgesia.

[1] = test system: adrenaline-induced local sweating; test: OPT-test of sweat response after intradermal adrenaline, epidermal application of local anesthetic emulsions on the forearm; assay type: in vivo, volunteers; conditions: for sweat response, induced by intracutaneous administration of adrenaline: 12 volunteers, epidermal application; for number of black-coloured sweat pores (OPT-test), M1-10: mean of patients 1-10; for number of black-coloured sweat pores (OPT-test), M1-12: mean of patients 1-12
Protocol: as §1, §2, §3, §4, §5, §6
(§7) Just under the apex of each test area triangle an intradermal wheal 0.1 ml adrenaline 1:10 000 was injected. Pain on injection was noted. The test area was then swabbed with OPT (5% orthophthaldialdehyde in xylol). After drying the OPT-applied area a plastic ring with adhesive on the back side was placed over the visible vasoconstricted area caused by the adrenaline effect, within the test triangle previously covered by the test compositions. The number of black-coloured sweat pores within the standardized diameter hole in the plastic rings was counted under a direct vision microscope.

[2] = Pain on intradermal injection of adrenaline solution in the test areas; assay type: in vivo; conditions: 0.1 ml adrenaline 1:10 000 in the test area; all volunteers
Protocol: as §7
All volunteers reported pain at the intradermal injection of adrenaline solution at the placebo, the lidocaine and the prilocaine areas but not at the lidocaine-prilocaine areas.

[3] = cited from earlier work
[4] = Non-Occlusion, individual Patient No 1-10, pads, 60 minutes, 10/10 full analgesia, 0/10 no analgesia
[5] = Non-Occlusion, individual Patient No 11, 12, emulsions applied directly to the skin, no cellulose pads
[6] = Occlusion, individual Patient No 1-10, pads, 60 minutes, 10 pin-pricks, 10/10 full analgesia, 0/10 no analgesia
[7] = Occlusion, individual Patient No 11, 12, emulsions applied directly to the skin, no cellulose pads
[8] = total concentration of 10%, aqueous emulsion
[9] = Non-Occlusion, individual Patient No 1-10, soaked cellulose pads, 60 minutes
[10] = Occlusion, individual Patient No 1-10, soaked cellulose pads, 60 minutes, L—P 5%+5%, L 10%, P 10% emulsion

Row | Compound | Pin-prick test (dermal analgesia; [4]) | Pin-prick test (dermal analgesia; [5]) | Pin-prick test, M1–10 (dermal analgesia; Non-Occlusion) | Pin-prick test, M1–12 (dermal analgesia; Non-Occlusion) | Pin-prick test (dermal analgesia; [6]) | Pin-prick test (dermal analgesia; [7]) | Pin-prick test, M1–10 (dermal analgesia; Occlusion) | Pin-prick test, M1–12 (dermal analgesia; Occlusion) | dermal analgesia, effectiveness versus placebo emulsion (dermal analgesia) | sweat response, induced by intracutaneous administration of adrenaline [1] | number of black-coloured sweat pores (OPT-test) [1, 9] | number of black-coloured sweat pores (OPT-test) [1, 5] | number of black-coloured sweat pores (OPT-test), M1-10 ([1]; Non-Occlusion) | number of black-coloured sweat pores (OPT-test), M1-12 ([1]; Non-Occlusion) | number of black-coloured sweat pores (OPT-test) [1, 10] | number of black-coloured sweat pores (OPT-test) [1, 7] | number of black-coloured sweat pores (OPT-test), M1-10 ([1]; Occlusion) | number of black-coloured sweat pores (OPT-test), M1-12 ([1]; Occlusion) | sweat response, effectiveness versus placebo ([1]; under non-occlusive bandage) | sweat response, effectiveness versus placebo ([1]; under occlusive bandage) | further results
1 | CCCNC(C)C(=O)Nc1ccccc1C (stereo not shown) [P, 2-propylamino-N-(2-tolyl)propionamide] | 1/10 and 0/10 (8×) and 6/10 | 2/10 and 0/10 | 0.70 | 0.75 | 2/10 and 0/10 (6×) and 10/10 and 1/10 | 7/10 and 9/10 | 1.44 | 2.64 | insignificantly more effective than the placebo emulsion | partly blocked | 46 and 18 (2×) and 34 and 24 and 26 (2×) and 25 and 21 and 40 | 14 and 20 | 27.8 | 26.0 | 24 (2×) and 30 and 17 and 52 and 18 and 22 and 15 and 28 | 24 and 16 | 25.6 | 24.54 | more effective than placebo | significantly more effective than placebo | dermal analgesia (pin-pricking), compared among the tested formulations (dermal analgesia; [8]): less effective; sweat response inhibition, compared among the tested formulations [1, 8]: less effective; pain at the intradermal injection of adrenaline solution [2]: reported pain
2 | CCN(CC)CCOC(=O)c1ccc(N)cc1 [procaine] |  |  |  |  |  |  |  |  |  |  |  |  |  |  |  |  |  |  |  |  | antihydrotic effect ([3]; administered electrophoretically): possesses an antihydrotic effect; antihydrotic effect ([3]; without electrophoresis, only topically): will not give any antihydrotic effect
3 | CCN(CC)CC(=O)Nc1c(C)cccc1C [L, Diethylaminoacet-2',6'-xylidide] | 0/10 (9×) and 1/10 | 0/10 | 0.10 | 0.08 | 0/10 (5×) and 2/10 (3×) and 5/10 and 3/10 | 8/10 and 6/10 | 1.40 | 2.33 | insignificantly more effective than the placebo emulsion | partly blocked | 42 and 24 (4×) and 29 and 27 and 25 and 19 and 32 | 22 and 33 | 27.0 | 27.08 | 22 (2×) and 25 and 20 (2×) and 24 (2×) and 16 (2×) and 28 | 12 and 26 | 21.7 | 21.25 | more effective than placebo | significantly more effective than placebo | pain at the intradermal injection of adrenaline solution [2]: reported pain
